Source: US7557098B2, “1-aryl- or 1-alkylsulfonyl-heterocyclylbenzazoles as 5-hydroxytryptamine-6 ligands” (Wyeth, priority 2000, dated 2009)
Structures can show the parent of a compound that is named as a salt. Where two headings read alike, the source gives them in different places.

What was measured:
[1] = biological target: T1, human cloned 5-HT6 receptors (Homo sapiens, UniProt P50406); assay: 5-HT6 binding affinity, [3H]-LSD displacement on membranes of Hela cells expressing human cloned 5-HT6 receptors
T1 construct: expressed in transfected cells; host or cells: Hela cells

[2] = [3H]-LSD 3.0 nM, Hela cell membranes, 120 min at room temperature, read-out: 5-HT6 binding Ki

T1 sequence (P50406 whole entry): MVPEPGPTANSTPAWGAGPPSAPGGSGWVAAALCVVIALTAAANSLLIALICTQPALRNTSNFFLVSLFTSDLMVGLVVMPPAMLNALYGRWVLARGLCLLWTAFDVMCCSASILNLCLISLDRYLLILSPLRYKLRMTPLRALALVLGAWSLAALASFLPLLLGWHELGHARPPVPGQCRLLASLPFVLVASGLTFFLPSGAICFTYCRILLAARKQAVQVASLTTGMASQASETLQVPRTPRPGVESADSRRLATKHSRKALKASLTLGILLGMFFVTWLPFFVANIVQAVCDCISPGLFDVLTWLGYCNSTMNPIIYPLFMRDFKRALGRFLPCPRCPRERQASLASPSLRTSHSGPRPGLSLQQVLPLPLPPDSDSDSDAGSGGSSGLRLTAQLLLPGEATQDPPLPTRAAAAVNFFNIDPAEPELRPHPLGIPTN

Row | Compound | melting point [°C] | Ki [1, 2] [nM] | Ki [1] [nM]
1 | O=S(=O)(c1ccc(OC(F)(F)F)cc1)n1ncc2c(N3CCN(Cc4ccccc4)CC3)cccc21 [Example 70] | 229 to 231 | 251 | –
2 | Nc1ccc(S(=O)(=O)n2ccc3c(N4CCN(Cc5ccncc5)CC4)cccc32)cc1 [Example 52] | – | 25 | –
3 | O=S(=O)(c1c(Cl)nc2sccn12)n1ccc2c(N3CCN(Cc4ccccc4)CC3)cccc21 [Example 27] | – | 56 | –
4 | COc1cccc(CN2CCN(c3cccc4c3ccn4S(=O)(=O)c3ccccc3Br)CC2)c1 [Example 42] | – | 4 | –
5 | CN1CCN(c2cccc3c2ccn3S(=O)(=O)c2ccc(N)cc2)CC1 [Example 36] | – | 3 | –
6 | O=S(=O)(c1cc(Cl)c(Cl)s1)n1ncc2c(N3CCN(Cc4ccccc4)CC3)cccc21 [Example 71] | 235 to 237 | 81 | –
7 | CCCCOc1ccc(S(=O)(=O)n2ccc3cc(N4CCNCC4)ccc32)cc1 [Example 83] | – | 38 | –
8 | COc1ccc(S(=O)(=O)n2ccc3c(N4CCN(Cc5cccnc5)CC4)cccc32)cc1OC [Example 50] | – | 17 | –
9 | O=C(CN1CCN(c2cccc3c2cnn3S(=O)(=O)c2ccccc2)CC1)c1ccccc1 [Example 62] | 202 to 205 | 12 | –
10 | O=S(=O)(c1c(Cl)nc2sccn12)n1ccc2c(N3CCN(Cc4ccncc4)CC3)cccc21 [Example 46] | – | 5 | –
11 | O=S(=O)(c1ccccc1)n1ncc2c(N3CCN(CCOc4ccc(F)cc4)CC3)cccc21 [Example 60] | 184 to 186 | 306 | –
12 | COc1ccc(S(=O)(=O)n2ccc3c(N4CCN(Cc5ccncc5)CC4)cccc32)cc1OC [Example 49] | – | 10 | –
13 | O=S(=O)(c1ccc(Br)s1)n1ncc2cc(N3CCNCC3)ccc21 [Example 81] | – | – | 44
14 | O=S(=O)(c1ccccc1)n1ccc2c(N3CCN(C4=NCCN4)CC3)cccc21 [Example 14, 4-[4-(4,5-Dihydro-1H-imidazol-2-yl)-piperazin-1-yl]-1-(phenylsulfonyl)-1H-indole] | – | – | 24
15 | Nc1ccc(S(=O)(=O)n2ccc3c(N4CCN(Cc5cccnc5)CC4)cccc32)cc1 [Example 53] | – | 4 | –
16 | Cc1c(S(=O)(=O)n2ncc3ccc(N4CCNCC4)cc32)sc2ccc(Cl)cc12 [Example 89] | – | 24 | –
17 | O=S(=O)(C=Cc1ccccc1)n1ncc2c(N3CCN(Cc4ccccc4)CC3)cccc21 [Example 65] | 233 to 235 | 172 | –
18 | O=S(=O)(c1c(Cl)nc2sccn12)n1ccc2c(N3CCNCC3)cccc21 [Example 3] | – | – | 1
19 | CC(=O)N1CCN(c2cccc3c2ccn3S(=O)(=O)c2c(Cl)nc3sccn23)CC1 [Example 30] | – | 220 | –
20 | COc1cccc(CN2CCN(c3cccc4c3ccn4S(=O)(=O)c3ccc(N)cc3)CC2)c1 [Example 51] | – | 7 | –
21 | O=S(=O)(c1ccccc1)n1ccc2c(N3CCN(Cc4cccnc4)CC3)cccc21 [Example 41] | – | 7 | –
22 | O=C(CCCN1CCN(c2cccc3c2cnn3S(=O)(=O)c2ccccc2)CC1)c1ccc(F)cc1 [Example 61] | – | 3 | –
23 | O=S(=O)(c1ccccc1)n1ncc2c(N3CCN(CCCc4ccccc4)CC3)cccc21 [Example 63] | 188 to 190 | 6 | –
24 | O=S(=O)(c1cc(Cl)c(Cl)s1)n1ncc2cc(N3CCNCC3)ccc21 [Example 90] | – | 30 | –
25 | Nc1ccc(S(=O)(=O)n2ccc3c(N4CCN(Cc5cccc([N+](=O)[O-])c5)CC4)cccc32)cc1 [Example 38] | – | 5 | –

Row | Compound | melting point [°C] | Ki [1, 2] [nM] | Ki [1] [nM]
26 | COc1ccc(S(=O)(=O)n2ccc3c(N4CCN(Cc5cccc([N+](=O)[O-])c5)CC4)cccc32)cc1OC [Example 33] | – | 45 | –
27 | Nc1ccc(S(=O)(=O)n2ccc3c(N4CCN(C5=NCCN5)CC4)cccc32)cc1 [Example 18] | – | 6 | –
28 | O=S(=O)(c1ccccc1Br)n1ccc2c(N3CCN(Cc4cccnc4)CC3)cccc21 [Example 44] | – | 1 | –
29 | O=S(=O)(c1ccccc1)n1ncc2c(N3CCN(Cc4ccccc4)CC3)cccc21 [Example 57, 4-(4-Benzylpiperazin-1-yl)-1-(phenylsulfonyl)-1H-indazole hydrochloride] | – | 14 | –
30 | O=S(=O)(c1ccccc1)n1ccc2c(N3CCN(Cc4ccncc4)CC3)cccc21 [Example 40] | – | 4 | –
31 | O=S(=O)(c1ccccc1)n1ncc2c(N3CCNCC3)cccc21 [Example 58, 1-(Phenylsulfonyl)-4-(1-piperazinyl)-1H-indazole hydrochloride] | – | – | 0.3
32 | O=S(=O)(c1ccc(Br)cc1)n1ncc2cc(N3CCNCC3)ccc21 [Example 79] | – | 19 | –
33 | O=S(=O)(c1ccccc1Br)n1ccc2c(N3CCNCC3)cccc21 [Example 2] | – | – | 2
34 | COc1ccc(S(=O)(=O)n2ncc3c(N4CCN(Cc5ccccc5)CC4)cccc32)cc1 [Example 69] | 206 to 209 | 116 | –
35 | O=S(=O)(c1ccc(Cl)cc1)n1ncc2c(N3CCN(Cc4ccccc4)CC3)cccc21 [Example 67] | 238 to 239 | 87 | –
36 | CCCN1CCN(c2cccc3c2cnn3S(=O)(=O)c2ccccc2)CC1 [Example 64] | 258 to 260 | 2 | –
37 | O=S(=O)(c1ccc2ccccc2c1)n1ncc2ccc(N3CCNCC3)cc21 [Example 96] | – | 37 | –
38 | Nc1ccc(S(=O)(=O)n2ccc3cc(N4CCNCC4)ccc32)cc1 [Example 73, 1-(4-Aminophenylsulfonyl)-5-piperazin-1-yl-1H-indole hydrochloride] | – | 34 | –
39 | Nc1ccc(S(=O)(=O)n2ccc3c(N4CCN(Cc5ccc(Cl)s5)CC4)cccc32)cc1 [Example 37] | – | 59 | –
40 | COc1cccc(CN2CCN(c3cccc4c3ccn4S(=O)(=O)c3ccc(OC)c(OC)c3)CC2)c1 [Example 48] | – | 14 | –
41 | Cc1ccc(S(=O)(=O)n2ncc3c(N4CCN(Cc5ccccc5)CC4)cccc32)cc1 [Example 72] | 215 to 217 | 56 | –
42 | O=S(=O)(c1ccccc1)n1ncc2c(N3CCN(CCc4ccccc4)CC3)cccc21 [Example 59, 4-[4-(2-phenylethyl)piperazin-1-yl]-1-(phenylsulfonyl)-1H-indazole hydrochloride] | – | 1 | –
43 | O=S(=O)(c1ccccc1Br)n1ccc2c(N3CCN(Cc4ccncc4)CC3)cccc21 [Example 43] | – | 7 | –
44 | Nc1ccc(S(=O)(=O)n2ccc3c(N4CCN(Cc5ccccc5)CC4)cccc32)cc1 [Example 35] | – | 15 | –
45 | Cc1nn(C)c(Cl)c1S(=O)(=O)n1ccc2cc(N3CCNCC3)ccc21 [Example 86] | – | 44 | –
46 | O=S(=O)(c1ccc(F)cc1)n1ncc2c(N3CCN(Cc4ccccc4)CC3)cccc21 [Example 66] | 240 to 241 | 84 | –
47 | Nc1ccc(S(=O)(=O)n2ccc3c(N4CCNCC4)cccc32)cc1 [Example 5] | – | – | 1
48 | O=S(=O)(c1c(Cl)nc2sccn12)n1ccc2c(N3CCN(Cc4cccnc4)CC3)cccc21 [Example 47] | – | 6 | –
49 | O=S(=O)(c1ccc(I)cc1)n1ncc2cc(N3CCNCC3)ccc21 [Example 101] | – | 18 | –
50 | O=S(=O)(c1cc(Cl)c(Cl)s1)n1ncc2ccc(N3CCNCC3)cc21 [Example 91] | – | 6 | –
